Earlier results as cited in US12622907B2, “Hair loss therapy” (NIRMANA BIO, INC., priority 2021, dated 2026).
Where two headings read alike, the source gives them in different places.

How the values were obtained:
[1] = system: men with male pattern hair loss; settings: oral 1 mg/day
[2] = system: 943 women and 461 men; settings: for subjects who had to stop treatment because of a side effect: low doses used for hair loss

SMILES	recipients with no further hair loss compared with baseline (hair counts) ([1]; men with vertex hair loss, after 2 years)	recipients with improvement in hair growth in global photographs ([1]; men with vertex hair loss, at 1 year)	recipients with improvement in hair growth in global photographs ([1]; men with vertex hair loss, at 2 years)	effect on hair growth and hair loss ([1]; significant proportion of men with male pattern hair loss)	frequency of side effects ([2]; low doses which are used to treat hair loss)	subjects who had to stop treatment because of a side effect ([2]; men (461))	subjects who had to stop treatment because of a side effect ([2]; women (943))
CC(C)(C)NC(=O)[C@H]1CC[C@H]2[C@@H]3CC[C@H]4NC(=O)C=C[C@]4(C)[C@H]3CC[C@]12C [finasteride, Finasteride]	83%	48%	66%	promotes hair growth and prevents further hair loss	–	–	–
Nc1cc(N2CCCCC2)nc(N)[n+]1[O-] [minoxidil, Minoxidil]	–	–	–	–	very uncommon	0.5%	2.5%
